According to patent US20230304018A1, “COMPOSITIONS AND METHODS FOR ENHANCING WEIGHT LOSS” (The Children's Hospital of Philadelphia, priority 2017, published 2023):
pIC50: −log10 of the molar value. Where a name gives a salt, the structure may show the parent alone.

Key:
JAK1 = JAK1 (Homo sapiens, UniProt P23458); conditions: cited from earlier work
JAK2 = JAK2 (Homo sapiens, UniProt O60674); conditions: cited from earlier work
TYK2 = TYK2 (Homo sapiens, UniProt P29597); conditions: cited from earlier work
Sequence of TYK2 (P29597 whole entry): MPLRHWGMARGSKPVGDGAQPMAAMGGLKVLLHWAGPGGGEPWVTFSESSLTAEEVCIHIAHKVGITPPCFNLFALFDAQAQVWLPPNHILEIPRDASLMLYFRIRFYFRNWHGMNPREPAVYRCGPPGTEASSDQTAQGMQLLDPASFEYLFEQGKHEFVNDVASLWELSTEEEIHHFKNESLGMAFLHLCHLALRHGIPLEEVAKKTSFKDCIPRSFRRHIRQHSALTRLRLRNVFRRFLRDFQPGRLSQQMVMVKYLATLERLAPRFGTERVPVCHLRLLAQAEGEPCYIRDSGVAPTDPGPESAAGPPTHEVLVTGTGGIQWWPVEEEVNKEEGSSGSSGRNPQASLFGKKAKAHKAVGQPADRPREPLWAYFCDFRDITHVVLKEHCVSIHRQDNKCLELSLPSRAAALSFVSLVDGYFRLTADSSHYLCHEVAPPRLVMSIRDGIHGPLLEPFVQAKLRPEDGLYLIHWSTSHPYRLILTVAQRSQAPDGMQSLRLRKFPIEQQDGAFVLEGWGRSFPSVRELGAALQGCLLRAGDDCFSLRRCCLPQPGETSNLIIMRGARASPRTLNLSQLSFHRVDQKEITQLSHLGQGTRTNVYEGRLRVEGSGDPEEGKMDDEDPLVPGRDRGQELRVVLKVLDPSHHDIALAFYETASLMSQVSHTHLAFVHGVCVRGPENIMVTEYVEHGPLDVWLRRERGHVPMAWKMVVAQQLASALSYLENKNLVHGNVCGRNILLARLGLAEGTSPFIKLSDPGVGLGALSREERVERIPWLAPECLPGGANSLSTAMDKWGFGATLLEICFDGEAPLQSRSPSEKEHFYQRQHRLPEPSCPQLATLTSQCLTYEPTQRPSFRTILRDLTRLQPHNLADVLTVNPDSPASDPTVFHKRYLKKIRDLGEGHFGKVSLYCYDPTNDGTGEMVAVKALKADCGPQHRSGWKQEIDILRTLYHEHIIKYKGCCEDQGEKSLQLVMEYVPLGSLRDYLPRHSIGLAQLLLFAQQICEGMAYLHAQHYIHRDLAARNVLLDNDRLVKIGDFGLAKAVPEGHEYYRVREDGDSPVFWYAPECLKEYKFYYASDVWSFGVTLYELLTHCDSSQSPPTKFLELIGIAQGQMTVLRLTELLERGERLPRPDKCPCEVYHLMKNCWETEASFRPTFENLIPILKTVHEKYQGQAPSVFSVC

[1] = system: Vps34, AKT, PDK1, p70S6K, MEK, ERK, p38, or JNK; conditions: cited from earlier work
PKC (Rat brain) = conditions: cited from earlier work
[2] = system: cytokines and chemokine from plasma of Clec16a KO mice; assay: Plasma cytokines and chemokines, Mouse Cytokine Array panel; assay type: in vivo
Text: FIG. 11. […]. The representative graph is quantification of cytokines and chemokine from plasma of Control (Vehicle), KO and KO+Tofacitinib inhibitor treated mice using the Mouse Cytokine Array panel.
To gain insight in the inflammatory mechanism involved in the development, progression and pathogenesis of various autoimmune diseases, we profiled plasma from control, KO and […] KO mice for cytokines and chemokine using Mouse Cytokine Array panel.

majority of kinases = conditions: tested at 1 μM; cited from earlier work
[3] = system: panel of 38 non-JAK kinases; conditions: cited from earlier work
19 other tested kinases = conditions: cited from earlier work
[4] = system: UBC-Cre-Clec16a^loxP KO mice; assay: Tofacitinib treatment of Clec16a KO mice: fat, weight, survival; assay type: in vivo
[5] = system: HSL, STATs, AMPK, mTOR, P62, LC3I/II and SOCS-1 expression; assay: Immunoblot analysis on gWAT from control, KO and Tofacitinib treated mice; assay type: in vivo
Text: To examine the signaling mechanism underlying the rescue, we performed immunoblot analysis on gWAT isolated from control, KO and Tofacitinib treated mice. We evaluated HSL, STATs, AMPK, mTOR, P62, LC3I/II and SOCS-1 expression (FIG. 10C). […]. […]. Over-activation of mTOR indicates inhibition of autophagy/lipophagy as evident by significant accumulation of P62 in CLEC16A KO mice. […].

JAK3 = target: T1, JAK3 (Homo sapiens, UniProt P52333); conditions: cited from earlier work
T1 sequence (P52333 1-1124): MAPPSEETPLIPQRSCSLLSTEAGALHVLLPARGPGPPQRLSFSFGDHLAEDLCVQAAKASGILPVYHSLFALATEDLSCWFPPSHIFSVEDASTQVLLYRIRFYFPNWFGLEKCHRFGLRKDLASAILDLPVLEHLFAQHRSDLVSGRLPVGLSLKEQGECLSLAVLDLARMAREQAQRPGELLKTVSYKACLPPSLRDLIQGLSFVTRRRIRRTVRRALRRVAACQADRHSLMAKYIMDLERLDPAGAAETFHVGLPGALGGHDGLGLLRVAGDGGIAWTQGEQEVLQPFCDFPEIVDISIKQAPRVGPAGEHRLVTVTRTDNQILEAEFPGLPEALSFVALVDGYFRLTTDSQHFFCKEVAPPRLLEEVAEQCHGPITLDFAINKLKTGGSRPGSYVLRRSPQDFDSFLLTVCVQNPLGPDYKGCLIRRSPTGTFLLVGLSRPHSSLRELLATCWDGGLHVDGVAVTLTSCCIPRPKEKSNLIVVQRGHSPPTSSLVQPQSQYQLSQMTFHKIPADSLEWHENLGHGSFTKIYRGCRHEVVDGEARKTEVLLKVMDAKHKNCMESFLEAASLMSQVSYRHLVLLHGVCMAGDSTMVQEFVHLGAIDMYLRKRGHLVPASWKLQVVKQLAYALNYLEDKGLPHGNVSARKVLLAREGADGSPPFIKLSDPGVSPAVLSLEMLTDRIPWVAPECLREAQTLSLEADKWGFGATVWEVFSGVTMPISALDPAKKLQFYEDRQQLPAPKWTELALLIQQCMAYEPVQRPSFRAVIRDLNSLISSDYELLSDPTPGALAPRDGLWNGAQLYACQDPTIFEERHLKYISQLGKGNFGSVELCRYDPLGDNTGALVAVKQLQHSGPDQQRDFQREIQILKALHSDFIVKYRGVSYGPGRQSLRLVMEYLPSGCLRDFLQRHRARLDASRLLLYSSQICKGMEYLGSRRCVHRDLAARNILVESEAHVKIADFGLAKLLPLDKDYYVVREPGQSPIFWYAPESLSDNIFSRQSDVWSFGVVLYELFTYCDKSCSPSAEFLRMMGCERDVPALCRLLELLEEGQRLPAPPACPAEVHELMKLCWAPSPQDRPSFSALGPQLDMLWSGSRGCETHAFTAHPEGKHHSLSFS

STAT3 = conditions: HEL cells; cited from earlier work
Flt3 = target: T2, Flt3 (Homo sapiens, UniProt P36888); conditions: cell-free assays; cited from earlier work
T2 sequence (P36888 27-993): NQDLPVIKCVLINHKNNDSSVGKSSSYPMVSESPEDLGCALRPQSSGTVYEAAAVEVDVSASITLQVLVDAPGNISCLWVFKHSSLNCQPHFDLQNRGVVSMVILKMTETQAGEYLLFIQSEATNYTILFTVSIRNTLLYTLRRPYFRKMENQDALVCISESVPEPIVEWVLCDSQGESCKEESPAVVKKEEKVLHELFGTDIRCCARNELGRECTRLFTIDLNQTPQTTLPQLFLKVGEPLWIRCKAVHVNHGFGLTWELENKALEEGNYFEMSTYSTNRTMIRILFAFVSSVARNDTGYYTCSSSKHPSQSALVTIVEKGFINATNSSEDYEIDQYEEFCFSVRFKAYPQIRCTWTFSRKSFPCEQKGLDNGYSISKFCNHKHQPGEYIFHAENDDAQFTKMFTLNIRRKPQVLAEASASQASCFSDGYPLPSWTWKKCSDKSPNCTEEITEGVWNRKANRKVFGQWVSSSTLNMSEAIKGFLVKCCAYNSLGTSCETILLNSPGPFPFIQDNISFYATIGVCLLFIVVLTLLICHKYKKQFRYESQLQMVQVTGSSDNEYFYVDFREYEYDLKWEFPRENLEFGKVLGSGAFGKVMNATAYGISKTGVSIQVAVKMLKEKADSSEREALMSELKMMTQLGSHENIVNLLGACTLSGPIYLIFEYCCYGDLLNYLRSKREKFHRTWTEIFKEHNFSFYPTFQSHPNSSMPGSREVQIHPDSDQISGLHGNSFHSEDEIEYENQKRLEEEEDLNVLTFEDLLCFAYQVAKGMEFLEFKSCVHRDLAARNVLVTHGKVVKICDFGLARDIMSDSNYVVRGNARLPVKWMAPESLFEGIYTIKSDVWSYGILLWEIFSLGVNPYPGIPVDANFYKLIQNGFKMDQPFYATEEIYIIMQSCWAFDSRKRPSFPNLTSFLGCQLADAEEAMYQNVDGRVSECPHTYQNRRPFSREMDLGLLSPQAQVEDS

RET = RET (Homo sapiens, UniProt P07949); conditions: cell-free assays; cited from earlier work
Sequence of RET (P07949 29-1114, species assumed): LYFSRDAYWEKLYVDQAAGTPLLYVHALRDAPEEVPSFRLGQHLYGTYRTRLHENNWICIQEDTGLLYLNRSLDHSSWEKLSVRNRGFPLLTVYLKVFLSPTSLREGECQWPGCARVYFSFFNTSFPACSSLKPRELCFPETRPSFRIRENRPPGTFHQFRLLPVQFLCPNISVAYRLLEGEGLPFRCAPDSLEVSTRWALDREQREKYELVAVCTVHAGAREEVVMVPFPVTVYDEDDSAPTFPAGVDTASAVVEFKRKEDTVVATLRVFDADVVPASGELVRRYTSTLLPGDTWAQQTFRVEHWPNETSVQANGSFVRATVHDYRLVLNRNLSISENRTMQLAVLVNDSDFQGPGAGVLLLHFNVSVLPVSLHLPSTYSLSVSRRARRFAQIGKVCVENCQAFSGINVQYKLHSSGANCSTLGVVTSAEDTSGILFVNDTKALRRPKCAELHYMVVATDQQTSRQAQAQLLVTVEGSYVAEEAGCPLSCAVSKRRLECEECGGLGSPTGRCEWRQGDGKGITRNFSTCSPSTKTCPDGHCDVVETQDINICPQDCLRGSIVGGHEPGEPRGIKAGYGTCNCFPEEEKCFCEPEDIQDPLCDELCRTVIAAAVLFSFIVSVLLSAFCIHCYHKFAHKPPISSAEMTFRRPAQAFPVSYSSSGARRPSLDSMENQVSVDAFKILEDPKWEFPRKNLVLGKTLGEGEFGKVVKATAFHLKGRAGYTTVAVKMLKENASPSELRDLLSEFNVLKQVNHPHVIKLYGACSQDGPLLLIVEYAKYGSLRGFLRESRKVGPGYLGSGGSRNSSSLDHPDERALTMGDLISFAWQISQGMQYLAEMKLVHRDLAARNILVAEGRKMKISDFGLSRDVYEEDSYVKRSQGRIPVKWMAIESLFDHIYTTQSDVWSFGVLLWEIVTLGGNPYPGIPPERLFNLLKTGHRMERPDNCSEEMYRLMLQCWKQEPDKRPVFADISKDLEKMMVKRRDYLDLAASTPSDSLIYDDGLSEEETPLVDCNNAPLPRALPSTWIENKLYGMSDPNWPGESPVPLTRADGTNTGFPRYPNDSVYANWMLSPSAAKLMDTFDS

mTOR [6] = target: mTOR (Homo sapiens, UniProt P42345); conditions: cited from earlier work
PI3K isoforms = conditions: cited from earlier work
mTOR [7] = target: T3, mTOR (Homo sapiens, UniProt P42345+P62942); conditions: cited from earlier work
T3 construct: endogenous in cells; host or cells: HT-1080 cell line
T3 sequence (Q9BVC4 whole entry): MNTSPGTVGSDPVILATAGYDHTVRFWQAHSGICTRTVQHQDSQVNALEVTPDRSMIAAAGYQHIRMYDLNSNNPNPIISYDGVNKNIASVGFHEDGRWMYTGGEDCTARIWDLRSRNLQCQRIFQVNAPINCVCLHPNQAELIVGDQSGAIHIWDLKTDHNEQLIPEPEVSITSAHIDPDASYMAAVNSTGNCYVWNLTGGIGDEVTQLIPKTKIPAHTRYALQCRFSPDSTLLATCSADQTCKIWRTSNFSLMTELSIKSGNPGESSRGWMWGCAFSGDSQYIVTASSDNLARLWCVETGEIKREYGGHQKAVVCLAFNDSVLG
T3 sequence (P62942 2-108): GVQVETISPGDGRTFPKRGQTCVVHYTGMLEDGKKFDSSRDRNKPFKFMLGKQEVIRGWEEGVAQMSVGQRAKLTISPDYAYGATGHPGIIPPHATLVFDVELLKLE

[8] = gWAT immunoblot, CLEC16A KO mice

Sequence of JAK2 (O60674 whole entry, species assumed): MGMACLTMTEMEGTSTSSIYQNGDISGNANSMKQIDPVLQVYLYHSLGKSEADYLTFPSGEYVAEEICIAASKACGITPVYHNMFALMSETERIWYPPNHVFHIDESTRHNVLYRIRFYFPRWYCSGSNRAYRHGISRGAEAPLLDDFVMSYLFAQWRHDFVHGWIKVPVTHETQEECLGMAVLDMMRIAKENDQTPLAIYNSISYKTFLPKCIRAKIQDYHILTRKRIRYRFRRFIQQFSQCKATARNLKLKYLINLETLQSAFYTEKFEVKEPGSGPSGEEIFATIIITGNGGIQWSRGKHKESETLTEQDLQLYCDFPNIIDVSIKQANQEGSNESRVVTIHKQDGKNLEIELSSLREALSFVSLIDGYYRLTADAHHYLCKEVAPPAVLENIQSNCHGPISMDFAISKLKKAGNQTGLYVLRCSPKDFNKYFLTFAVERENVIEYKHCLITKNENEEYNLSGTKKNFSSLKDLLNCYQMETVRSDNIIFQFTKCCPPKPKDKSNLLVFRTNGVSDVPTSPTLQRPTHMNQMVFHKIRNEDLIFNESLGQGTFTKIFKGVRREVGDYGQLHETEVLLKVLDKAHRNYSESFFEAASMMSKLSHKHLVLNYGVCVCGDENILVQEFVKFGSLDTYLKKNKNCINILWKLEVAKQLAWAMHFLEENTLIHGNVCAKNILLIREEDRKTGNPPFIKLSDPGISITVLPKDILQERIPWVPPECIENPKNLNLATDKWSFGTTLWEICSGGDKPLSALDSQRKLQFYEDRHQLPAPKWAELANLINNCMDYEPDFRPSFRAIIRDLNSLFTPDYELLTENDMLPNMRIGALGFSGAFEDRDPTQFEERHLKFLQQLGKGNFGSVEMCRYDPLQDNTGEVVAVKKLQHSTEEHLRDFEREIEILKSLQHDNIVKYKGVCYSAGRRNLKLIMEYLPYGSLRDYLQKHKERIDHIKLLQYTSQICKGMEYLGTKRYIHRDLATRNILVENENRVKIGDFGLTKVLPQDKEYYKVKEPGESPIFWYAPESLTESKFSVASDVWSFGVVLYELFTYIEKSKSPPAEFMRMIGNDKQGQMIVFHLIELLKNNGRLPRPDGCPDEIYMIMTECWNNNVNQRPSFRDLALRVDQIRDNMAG
Sequence of JAK1 (P23458 whole entry, species assumed): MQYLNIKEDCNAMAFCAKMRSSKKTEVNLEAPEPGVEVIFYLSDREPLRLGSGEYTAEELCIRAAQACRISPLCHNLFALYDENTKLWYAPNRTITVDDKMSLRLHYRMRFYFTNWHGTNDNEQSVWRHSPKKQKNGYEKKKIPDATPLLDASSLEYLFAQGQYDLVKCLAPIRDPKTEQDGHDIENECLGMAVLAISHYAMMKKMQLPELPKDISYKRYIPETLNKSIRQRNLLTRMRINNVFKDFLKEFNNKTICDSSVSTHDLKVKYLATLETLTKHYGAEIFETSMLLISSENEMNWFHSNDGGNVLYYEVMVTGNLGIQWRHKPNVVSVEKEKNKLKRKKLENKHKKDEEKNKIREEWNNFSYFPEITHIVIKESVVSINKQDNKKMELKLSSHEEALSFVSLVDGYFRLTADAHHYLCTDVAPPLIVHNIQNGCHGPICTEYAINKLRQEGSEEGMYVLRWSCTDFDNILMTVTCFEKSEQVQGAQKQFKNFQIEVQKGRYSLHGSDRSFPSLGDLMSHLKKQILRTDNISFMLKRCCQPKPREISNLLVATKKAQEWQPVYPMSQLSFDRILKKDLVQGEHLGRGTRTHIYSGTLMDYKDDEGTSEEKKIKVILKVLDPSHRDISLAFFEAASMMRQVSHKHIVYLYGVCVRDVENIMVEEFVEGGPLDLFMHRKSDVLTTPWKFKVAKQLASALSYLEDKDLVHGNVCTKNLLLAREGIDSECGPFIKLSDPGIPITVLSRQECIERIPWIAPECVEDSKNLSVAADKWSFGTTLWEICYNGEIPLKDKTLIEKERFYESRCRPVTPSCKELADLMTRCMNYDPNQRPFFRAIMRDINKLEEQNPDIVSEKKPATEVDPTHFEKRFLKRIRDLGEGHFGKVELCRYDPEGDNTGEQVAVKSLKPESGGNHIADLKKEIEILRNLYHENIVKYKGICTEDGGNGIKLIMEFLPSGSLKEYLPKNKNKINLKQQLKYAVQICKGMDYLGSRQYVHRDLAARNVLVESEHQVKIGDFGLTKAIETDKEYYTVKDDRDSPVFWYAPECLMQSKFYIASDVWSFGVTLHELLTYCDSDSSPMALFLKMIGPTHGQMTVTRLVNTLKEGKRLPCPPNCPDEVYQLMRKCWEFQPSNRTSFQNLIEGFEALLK

For CN1CCN(c2cccc(Nc3nc4c(-c5ccc(S(C)(=O)=O)cc5)cccn4n3)c2)CC1 [CEP33779], the “selectivity for JAK2 versus JAK1” value (JAK1) is given as over 40 fold, the pIC50 (JAK2) is given as 8.74 and the “selectivity for JAK2 versus TYK2” value (TYK2) is given as over 800 fold.
In the case of COc1ccc(-c2cc3c(C)nc(N)nc3n([C@H]3CC[C@H](OCCO)CC3)c2=O)cn1 [PF-04691502], the “activity against Vps34, AKT, PDK1, p70S6K, MEK, ERK, p38, or JNK” value [1] is given as “little activity”.
In the case of COc1cc2ncnc(Nc3ccc(O)c(Br)c3)c2cc1OC [WHI-P154], the “activity against JAK1” value (JAK1) is listed as “no activity” and the “activity against JAK2” value (JAK2) is listed as “no activity”.
In the case of Cn1c2ccccc2c2c3c(c4c5ccccc5n(CCC#N)c4c21)CNC3=O [Go6976], the pIC50 (PKC (Rat brain)) is listed as 8.10.
With N#CC(=C(/N)Sc1ccccc1N)/C(C#N)=C(\N)Sc1ccccc1N [U0126] the “up regulated cytokines and chemokines” value ([2]; plasma of U0126-treated KO mice) was “reversed”.
For CNC(=O)c1cccc(-c2ccc3c(N4CCOC[C@@H]4C)nc(N4CCOC[C@@H]4C)nc3n2)c1 [Vistusertib], the “binding to the majority of kinases” value (majority of kinases) is listed as “no or weak binding”.
For CNS(=O)(=O)C[C@H]1CC[C@H](N(C)c2ncnc3[nH]ccc23)CC1 [Oclacitinib], the “inhibition of a panel of 38 non-JAK kinases” value [3] is listed as “does not inhibit”.
For CCS(=O)(=O)N1CCN(c2ccc(Nc3ncc(C(N)=O)c(NC4CC4)n3)cc2)CC1 [Cerdulatinib], the pIC50 (19 other tested kinases) is given as over 6.70.
With C[C@@H]1CCN(C(=O)CC#N)C[C@@H]1N(C)c1ncnc2[nH]ccc12 [Tofacitinib] the “lipodystrophic (inflammatory) phenotype” value [4] was “partially rescues”, the “fat and weight loss” value ([4]; Tofacitinib treatment) was “significantly rescued” and the survival ([4]; Tofacitinib treatment) was “improves”. For the same compound, the autophagy/lipophagy defect ([5]; gWAT immunoblot (P62), CLEC16A KO mice) was “rescues”, the SOCS1 expression [5, 8] was “significantly reversed” and the “p-STAT1 and p-STAT3” value [5, 8] was “downregulating the p-STAT1 and p-STAT3 to normal levels comparable to control”. The “phosphorylation of ACC” value [5, 8] was “promoted”, the “phosphorylation of mTOR” value [5, 8] was “reversal” and the “upregulated p-AMPK” value [5, 8] was “significantly reduced”. For the same compound, the “phospho-HSL (p-HSL)” value ([5]; gWAT immunoblot, CLEC16A KO+Tofacitinib mice) was “significant reversal” and the “CLEC16A knockout inflammatory phenotype (cytokines/chemokine levels)” value ([2]; plasma, KO+Tofacitinib treated mice, FIG. 11) was “attenuated”.
For N#Cc1ccc(COc2ccc(-c3cccc4nc(NC(=O)C5CC5)nn34)cc2)cn1 [GLPG0634 analogue], the pIC50 (JAK1) is given as 8.00, the pIC50 (JAK2) is given as 7.55 and the pIC50 (JAK3) is given as 6.09. The pIC50 (TYK2) was 6.94.
In the case of C[C@H](NC(=O)/C(C#N)=C/c1cccc(Br)n1)c1ccccc1 [WP1066], the pIC50 (STAT3) is given as 5.61.
In the case of CCn1c(C(=O)N(C2CC2)C2CC2)cc2c3c(ncn3C)c(Nc3cc(C)n(C)n3)nc21 [BMS-911543], the “selectivity for JAK2 versus JAK1” value (JAK1) is listed as about 350 fold, the “selectivity for JAK2 versus JAK3” value (JAK3) is listed as 75 fold and the “selectivity for JAK2 versus TYK2” value (TYK2) is listed as 65 fold.
In the case of CC(C)N(CCC(=O)c1ccc2ccccc2c1)Cc1ccccc1 [ZM 39923 HCl], the “activity against JAK2” value (JAK2) is listed as “almost no activity”.
For Cc1cnc(Nc2ccc(N3CCN(C)CC3)cc2)nc1Nc1cccc(S(=O)(=O)NC(C)(C)C)c1 [TG101209], the pIC50 (Flt3) is given as 7.60 and the pIC50 (RET) is given as 7.77.
For Cc1cc(Nc2nc(N[C@@H](C)c3ccc(F)cc3)c(C#N)cc2F)n[nH]1 [AZ 960], the pIC50 (JAK2) is given as over 8.52 and the “selectivity for JAK2 versus JAK3” value (JAK3) is given as 3 fold.
In the case of CO[C@H]1C[C@@H]2CC[C@@H](C)[C@@](O)(O2)C(=O)C(=O)N2CCCC[C@H]2C(=O)O[C@H]([C@H](C)C[C@@H]2CC[C@@H](OCCO)[C@H](OC)C2)CC(=O)[C@H](C)/C=C(\C)[C@@H](O)[C@@H](OC)C(=O)[C@H](C)C[C@H](C)/C=C/C=C/C=C/1C [Everolimus], the pIC50 (mTOR [6]) is listed as 8.62 to 8.80.
For COc1ccc(-c2ccc3c(N4CCOCC4)nc(N4C[C@@H](C)O[C@@H](C)C4)nc3n2)cc1CO [KU-0063794], the “effect on PI3Ks” value (PI3K isoforms) is given as “no effect”.
In the case of CO[C@H]1C[C@@H]2CC[C@@H](C)[C@@](O)(O2)C(=O)C(=O)N2CCCC[C@H]2C(=O)O[C@H]([C@H](C)C[C@@H]2CC[C@@H](OP(C)(C)=O)[C@H](OC)C2)CC(=O)[C@H](C)/C=C(\C)[C@@H](O)[C@@H](OC)C(=O)[C@H](C)C[C@H](C)/C=C/C=C/C=C/1C [Ridaforolimus], the pIC50 (mTOR [7]) is listed as 9.70.
